This is an account of results in patent publication US20140024638A1, “TREATMENT OF COGNITIVE DYSFUNCTION IN SCHIZOPHRENIA” (TARGACEPT, INC., priority 2011, published 2014).

Data set [1] deals with patients with schizophrenia. In words: Groton Maze Learning Task (GMLT) of the CogState Schizophrenia Battery, Phase 2 trial. The following applies: for GML (Total Error) LOG: Adjusted Mean / GML (Total Error) LOG: Mean Difference ± SE between TC-5619 and Placebo (Placebo-TC5619): All Patients; for GMLT primary efficacy outcome measure: result against protocol criteria: positive outcome = superiority over placebo, one-sided p-value <0.10 after adjusting for 3 comparisons (Weeks 4, 8, 12), adjusted p-value=0.054, unadjusted p 0.018 at 4 weeks, 0.041 at 12 weeks; for GMLT log (10) transformed: Mean (SE): tobacco users. Type of data set: in vivo, human. How it is done:
The double blind, placebo controlled Phase 2 trial was conducted at 7 sites in the United States and 12 sites in India. […] Of the randomized patients, approximately 69% were male and approximately 46% were users of tobacco products. […] The primary efficacy outcome measure was GMLT, and the trial included a number of other scales as secondary efficacy outcome measures.
The GMLT is a computerized test designed to assess executive function (the ability to organize cognitive processes, including the ability to plan, prioritize, stop and start activities, shift from one activity to another activity and to monitor one's own behavior). Impaired executive function is thought to be an important aspect of cognitive dysfunction in schizophrenia.

Another data set concerns healthy volunteers. The experiment in a line: phase 1 trials in healthy volunteers. Type of data set: in vivo, human.
In another data set the target is α7 NNR receptor (Homo sapiens, UniProt P36544). The experiment in a line: agonism at the α7 NNR receptor. Type of data set: biochemical.
α7 NNR receptor, sequence (P36544 23-502): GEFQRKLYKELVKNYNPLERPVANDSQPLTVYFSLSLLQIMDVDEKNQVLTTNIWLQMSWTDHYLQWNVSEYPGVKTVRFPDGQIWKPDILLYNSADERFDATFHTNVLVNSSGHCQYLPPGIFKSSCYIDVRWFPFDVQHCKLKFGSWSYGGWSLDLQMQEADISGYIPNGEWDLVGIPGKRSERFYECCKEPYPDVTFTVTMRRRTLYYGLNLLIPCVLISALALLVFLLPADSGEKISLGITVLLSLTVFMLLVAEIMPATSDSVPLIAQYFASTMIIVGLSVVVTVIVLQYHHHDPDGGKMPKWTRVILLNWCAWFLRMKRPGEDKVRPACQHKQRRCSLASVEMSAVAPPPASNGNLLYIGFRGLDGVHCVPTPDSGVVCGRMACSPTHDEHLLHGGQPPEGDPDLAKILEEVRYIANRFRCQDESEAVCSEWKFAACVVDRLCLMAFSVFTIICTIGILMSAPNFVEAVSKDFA
Setting [2] is: listed as (2S,3R)—N-(2-((3-pyridinyl)methyl)-1-azabicyclo[2.2.2]oct-3-yl)benzofuran-2-carb.

For `O=C(N[C@@H]1C2CCN(CC2)[C@H]1Cc1cccnc1)c1cc2ccccc2o1` (single isomer, unassigned) [TC-5619], the “GML (Total Error) LOG: Adjusted Mean” value was −0.01 in data set [1] (Week 1, 1 mg daily, SE 0.01, placebo −0.02); −0.03 in data set [1] (Week 4, 1 mg daily, SE 0.02, placebo 0.02); −0.05 in data set [1] (Week 8, 5 mg daily, SE 0.02, placebo −0.02); −0.06 in data set [1] (Week 12, 25 mg daily, SE 0.02, placebo −0.02). The “GML (Total Error) LOG: Mean Difference ± SE between TC-5619 and Placebo (Placebo-TC5619)” value was −0.01 ± 0.02 in data set [1] (Week 1, 1 mg daily, one-sided 90% CI (−0.03, ∞), one-sided P 0.6709); 0.05 ± 0.02 in data set [1] (Week 4, 1 mg daily, one-sided 90% CI (0.02, ∞), one-sided P 0.0180); 0.02 ± 0.02 in data set [1] (Week 8, 5 mg daily, one-sided 90% CI (−0.00, ∞), one-sided P 0.1308); 0.04 ± 0.02 in data set [1] (Week 12, 25 mg daily, one-sided 90% CI (0.01, ∞), one-sided P 0.0405). Moreover, in data set [1] (non-users), the “GMLT activity in non-users of tobacco” value is “no activity”. The “GMLT primary efficacy outcome measure: result against protocol criteria” value in data set [1] is given as “met the pre-defined success criteria”; in data set [1] (setting [2]), “met the protocol criteria for a positive result”. In data set [1] (subgroup comparison), the “GMLT results, patients at study sites in United States as compared to study sites in India” value is “favorable”. The “GMLT results, tobacco users as compared to non-users” value in data set [1] (subgroup comparison) was “favorable for tobacco users as compared to non-users”. For the same compound, the “GMLT log (10) transformed: Mean (SE)” value is recorded as 0.06 (.03) p = 0.014 in data set [1] (Week 4, 1 mg daily, 1-tailed p = 0.014); 0.04 (0.03) p = 0.086 in data set [1] (Week 8, 5 mg daily, 1-tailed p = 0.086); 0.07 (0.02) p = 0.002 in data set [1] (Week 12, 25 mg daily, 1-tailed p = 0.002). Also, the “GMLT log (10) transformed: Mean (SEM)” value is 0.05 (0.02); p = 0.018 in data set [1] (total population (tobacco users and non-users), Week 4, 1 mg daily, 1-tailed p = 0.018); 0.02 (0.02); p = 0.131 in data set [1] (total population, Week 8, 5 mg daily, 1-tailed p = 0.131); 0.04 (0.02); p = 0.041 in data set [1] (total population, Week 12, 25 mg daily, 1-tailed p = 0.041). Further, in the data set with healthy volunteers (6.7 mg administered), the attention result is “robust improvement in attention”. The tolerability result in the data set on healthy volunteers (phase 1 trials) is recorded as “generally well tolerated”. In addition, the “agonist character at the α7 NNR” value is on record as “selective alpha7 NNR agonist” at α7 NNR receptor (setting [2]) and “highly selective, full agonist” on α7 NNR receptor (listed as Compound A). Also, the “separation between EC50 and the IC50 (for residual inhibition)” value at α7 NNR receptor (α7 NNR receptor) is “good separation”.
